Source: publication PMC7433010, “Exploration of multi‐target effects of 3‐benzoyl‐5‐hydroxychromen‐2‐one in Alzheimer’s disease cell and mouse models” (Aging Cell, 2020)

Molecular target: T1, His‐tagged ∆K280 TauRD protein (Homo sapiens, UniProt P10636, DEL597-597)
T1 construct: containing residues 244–372 of the full‐length 4R2N Tau441; added start Met (ATG codon in forward primer) (N); made in house; host or cells: E. coli BL21(DE3)pLysS
Experiment: Thioflavin T binding assay for TauRD aggregation
Format: biochemical
Conditions: 10 µM, 2 days at 37°C; without compound 16,856 AU
Description: Although known to reduce Aβ neurotoxicity (Lorenzo & Yankner, 1994), congo red was also reported as an agonist to drive aggregation within 293 cells expressing full‐length tau isoform htau40 (Bandyopadhyay, Li, Yin, & Kuret, 2007). Thus, we further examined the effects of congo red and tested chalcones on Tau misfolding using prokaryotic His‐tagged wild‐type (WT) and ∆K280 pET‐28a(+)‐TauRD proteins (Figure S3a) using thioflavin T binding assay and transmission electron microscopy (TEM) examination. […]
For thioflavin T binding assay, TauRD protein (20 μM in final 50 μl) was incubated with tested compounds (1−10 μM) in 150 mM NaCl and 20 mM Tris-HCl, pH 8.0, at 37°C for 48 h to form aggregates. […] Thioflavin T fluorescence intensity of samples was recorded by using a microplate reader (Bio-Tek FLx800), with excitation 420 nm and emission 485 nm filter combination.
Figure S3. TauRD-His proteins and Tau aggregation monitored by thioflavin T fluorescence and TEM. […] TauRD protein (20 μM in 50 μl buffer) was incubated with congo red, licochalcone A, or LM compounds (1−10 μM) at 37°C for 48 h, and aggregation was monitored by measuring thioflavin T fluorescence intensity (n = 3). p values: comparisons between 0 h and 48 h (^###: p < 0.001), wild type versus ΔK280 (^&&&: p < 0.001), or with and without compound addition (**: p < 0.01, ***: p < 0.001). […]

T1 sequence (P10636 with tags, fused parts or gaps isoform P10636-8 DEL280-280): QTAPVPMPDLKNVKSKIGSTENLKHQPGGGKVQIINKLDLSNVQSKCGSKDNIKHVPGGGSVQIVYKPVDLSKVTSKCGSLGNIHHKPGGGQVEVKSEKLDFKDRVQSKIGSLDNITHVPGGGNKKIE

| Structure (SMILES) | ΔK280 TauRD aggregation (thioflavin T fluorescence) |
| --- | --- |
| Nc1c(/N=N/c2ccc(-c3ccc(/N=N/c4cc(S(=O)(=O)O)c5ccccc5c4N)cc3)cc2)cc(S(=O)(=O)O)c2ccccc12 [congo red, reference compound] | 4,774 AU |
| COc1ccc(C(=O)/C=C/c2cc(Br)ccc2O)cc1 [LM‐004] | 6,758 AU |
